Measured values from patent US7074791B2, “Pyrrolo[1,2-b]pyridazine compounds and their uses” (Pfizer Inc., priority 2002, dated 2006).

Question: Which melting point does the source give for COCC(COC)Nc1cc(C)nn2c(-c3ccc(Cl)cc3Cl)c(C)cc12 [Example 2, 7-(2,4-dichlorophenyl)-N-[2-methoxy-1-(methoxymethyl)ethyl]-2,6-dimethylpyrrolo[1,2-b]pyridazin-4-amine] here?
Answer: 154 to 155 °C

Question: For CCC(CC)Nc1cc(C)nn2c(-c3ccc(Cl)cc3Cl)c(C)cc12 [Example 1, 7-(2,4-dichlorophenyl)-N-(1-ethylpropyl)-2,6-dimethylpyrrolo[1,2-b]pyridazin-4-amine], which melting point is on record?
Answer: 115 to 118 °C
